In patent publication US20230159510A1, “NOVEL PRMT5 INHIBITORS” (AMGEN INC., priority 2020, published 2023):
pIC50: −log10 of the molar value. Like-named read-outs stand apart in the source and are kept apart here.

Assays:
HCT116 MTAP null cells = experiment: HCT116 proliferation assay, MTAP null cells (CellTiter-Glo, 6 days); format: cell-based; conditions: read-out: Protif_ HCT116-MTAP null IC50
Procedure: (§1) HCT116 MTAP null and WT cells were seeded in 96-well tissue culture plates in RPMI 1640 media + 10% fetal bovine serum. Plates were incubated overnight at 37° C. and 5% CO2. Cells were then treated with a 8- or 9-point serial dilution of compound, using a top concentration of 1 or 10 µM, 1:3 serial dilution steps and, a DMSO-only control. Cells were incubated in the presence of drug for 6 days. Effects on cell viability were measured with the CellTiter-Glo® Luminescent Cell Viability Assay (Promega) per manufacturer’s recommendation. Assay plates were read on an EnVision™ Multilabel Reader using the Ultra-Sensitive luminescence module.

HCT116 WT cells = experiment: HCT116 proliferation assay, WT cells (CellTiter-Glo, 6 days); format: cell-based; conditions: read-out: Prolif_HCT116-WT IC50
Procedure: as §1

| Compound | pIC50 (HCT116 MTAP null cells; HCT116-MTAP null, 144 h) | pIC50 (HCT116 WT cells; Homo sapiens, HCT-116, 144 h) | pIC50 (HCT116 MTAP null cells) | pIC50 (HCT116 WT cells) |
| --- | --- | --- | --- | --- |
| N#CC[C@@H](C1CC1)N(Cc1ccc(C#N)cn1)C(=O)c1ccc2nc(N)c(Br)cc2c1 [Example 776, (S)-2-amino-3-bromo-N-(2-cyano-1-cyclopropylethyl)-N-((5-cyanopyridin-2-yl)methyl)quinoline-6-carboxamide] | 6.71 | 5.14 |  |  |
| COc1ccc(CN(C(=O)c2ccc3nc(N)c(C)cc3c2)C(C)c2ncn(C)n2)nn1 (stereo not drawn) [Example 756, 2-amino-N-((6-methoxypyridazin-3-yl)methyl)-3-methyl-N-(1-(1-methyl-1H-1,2,4-triazol-3-yl)ethyl)quinoline-6-carboxamide] | 6.64 | 5.23 |  |  |
| Cc1cc2cc(C(=O)N(CCOC(F)(F)F)Cc3ccc(C(F)(F)F)cn3)ccc2nc1N [Example 734, 2-amino-3-methyl-N-(2-(trifluoromethoxy)ethyl)-N-((5-(trifluoromethyl)-2-pyridinyl)methyl)-6-quinolinecarboxamide] | 6.00 | < 5.00 |  |  |
| Cc1cc2cc(C(=O)N(Cc3ccc(Br)nn3)[C@@H]3CCCn4ncnc43)c(F)cc2nc1N [Example 757, (R)-2-amino-N-((6-bromopyridazin-3-yl)methyl)-7-fluoro-3-methyl-N-(5,6,7,8-tetrahydro-[1,2,4]triazolo[1,5-a]pyridin-8-yl)quinoline-6-carboxamide] | 6.50 | 5.05 |  |  |
| CO[C@@H]1COCC[C@H]1N(Cc1ccc(C(F)(F)F)cn1)C(=O)c1ccc2nc(N)c(Br)cc2c1 [Example 829, 2-amino-3-bromo-N-((3S,4R)-3-methoxytetrahydro-2H-pyran-4-yl)-N-((5-(trifluoromethyl)pyridin-2-yl)methyl) quinoline-6-carboxamide] | 6.08 | < 5.00 |  |  |
| Nc1nc2ccc(C(=O)N(Cc3ccc(C(F)(F)F)cn3)C3CCOC3C3CC3)cc2cc1Br (stereo not drawn) [Example 832, 2-amino-3-bromo-N-(2-cyclopropyltetrahydrofuran-3-yl)-N-((5-(trifluoromethyl)pyridin-2-yl)methyl)quinoline-6-carboxamide] | 6.42 | < 5.00 |  |  |
| Cc1cc2cc(C(=O)N(Cc3ccc(C(C)(C)O)cn3)[C@H](C)c3ncccn3)ccc2nc1N [Example 801, 2-amino-N-((5-(2-hydroxy-2-propanyl)-2-pyridinyl)methyl)-3-methyl-N-((1R)-1-(2-pyrimidinyl)ethyl)-6-quinolinecarboxamide] | 6.27 | < 5.00 |  |  |
| Cc1cc2cc(C(=O)N(Cc3ccc4[nH]c(=O)[nH]c4c3)Cc3ccncc3F)ccc2nc1N [Example 588, 2-amino-N-((3-fluoropyridin-4-yl)methyl)-3-methyl-N-((2-oxo-2,3-dihydro-1H-benzo [d]imidazol-5-yl)methyl)quinoline-6-carboxamide] | 6.12 | < 6.00 |  |  |
| Cc1cc2cc(C(=O)N(Cc3cc4c(cn3)OCCC4)C(C)c3ncccn3)ccc2nc1N (stereo not drawn) [Example 741, 2-amino-N-((3,4-dihydro-2H-pyrano[2,3-c]pyridin-6-yl)methyl)-3-methyl-N-(1-(pyrimidin-2-yl)ethyl)quinoline-6-carboxamide] | 6.57 | 5.08 |  |  |
| Cc1cc2cc(C(=O)N(Cc3ccc(C(F)(F)F)cn3)[C@@H]3CCOC[C@H]3O)ccc2nc1N (single isomer, unassigned) [Example 815] | 6.60 | 5.29 |  |  |
| Cc1cc2cc(C(=O)N(Cc3ccc(C(F)(F)F)cn3)[C@H](C)c3cccc(C#N)n3)ccc2nc1N (single isomer, unassigned) [Example 811] | 6.37 | < 5.00 |  |  |
| Cc1cc2cc(C(=O)N(Cc3ccc(C(F)(F)F)cn3)C(C)C3CCOCC3)ccc2nc1N (stereo not drawn) [Example 675, 2-amino-3-methyl-N-(1-tetrahydropyran-4-ylethyl)-N-[[5-(trifluoromethyl)-2-pyridyl]methyl] quinoline-6-carboxamide] | 6.63 | < 6.00 |  |  |
| N#CC1(CN(Cc2ccc(C(F)(F)F)cn2)C(=O)c2ccc3nc(N)c(Br)cc3c2)CC1 [Example 828, 2-amino-3-bromo-N-((1-cyanocyclopropyl)methyl)-N-((5-(trifluoromethyl)pyridin-2-yl)methyl)quinoline-6-carboxamide] | 6.04 | < 5.00 |  |  |
| C[C@H](c1ncccn1)N(Cc1cc(Cl)c(C#N)cn1)C(=O)c1ccc2nc(N)c(Br)cc2c1 [Example 745, (R)-2-amino-3-bromo-N-((4-chloro-5-cyanopyridin-2-yl)methyl)-N-(1-(pyrimidin-2-yl)ethyl)quinoline-6-carboxamide] | 6.65 | 5.91 |  |  |
| 2-amino-3-methyl-N-(4-(3-oxetanyl)benzyl)-N-((1R)-1-(2-pyrimidinyl)ethyl)-6-quinolinecarboxamide, 2-amino-3-methyl-N-(4-(3-oxetanyl)benzyl)-N-((1S)-1-(2-pyrimidinyl)ethyl)-6-quinolinecarboxamide [Example 802] |  |  | 6.41 | 5.03 |

The remaining compounds from weak to strong by pIC50 (HCT116 MTAP null cells; HCT116-MTAP null, 144 h), led by results:

| pIC50 (HCT116 MTAP null cells; HCT116-MTAP null, 144 h) | pIC50 (HCT116 WT cells; Homo sapiens, HCT-116, 144 h) | pIC50 (HCT116 MTAP null cells) | pIC50 (HCT116 WT cells) | Compound |
| --- | --- | --- | --- | --- |
| 6.74 | < 5.00 |  |  | COc1ccc(CN(C(=O)c2ccc3nc(N)c(Br)cc3c2)C(C)c2ncn(C)n2)nn1 (stereo in doubt) [Example 755, (R)-2-amino-3-bromo-N-((6-methoxypyridazin-3-yl)methyl)-N-(1-(1-methyl-1H-1,2,4-triazol-3-yl)ethyl)quinoline-6-carboxamide] |
| 6.74 | 6.29 |  |  | C[C@H](c1ncccn1)N(Cc1ccc(C(F)(F)F)cn1)C(=O)c1ccc2nc(N)ccc2c1 [Example 765, (R)-2-amino-N-(1-(pyrimidin-2-yl)ethyl)-N-((5-(trifluoromethyl)pyridin-2-yl)methyl)quinoline-6-carboxamide] |
| 6.76 | 5.37 |  |  | N#Cc1ccc(CN(C(=O)c2ccc3nc(N)c(Br)cc3c2)[C@@H](c2ncccn2)C2CC2)nc1 [Example 738, 2-amino-3-bromo-N-((5-cyano-2-pyridinyl)methyl)-N-((R)-cyclopropyl(2-pyrimidinyl)methyl)-6-quinolinecarboxamide] |
| 6.84 | 5.74 |  |  | Cc1cc2cc(C(=O)N(Cc3ccc(C(F)(F)F)cn3)[C@@H]3CC(F)(F)C[C@H]3O)ccc2nc1N (single isomer, unassigned) [Example 780] |
| 6.87 | 5.63 |  |  | Cc1cc2cc(C(=O)N(Cc3ncccc3F)[C@H]3COc4cc(C(F)(F)F)ccc43)ccc2nc1N (single isomer, unassigned) [Example 524] |
| 6.88 | 5.32 |  |  | Cc1cc2c(C)c(C(=O)N(Cc3ccc(C(F)(F)F)cn3)[C@H](C)c3ncccn3)ccc2nc1N [Example 770, 2-amino-3,5-dimethyl-N-((1R)-1-(2-pyrimidinyl)ethyl)-N-((5-(trifluoromethyl)-2-pyridinyl)methyl)-6-quinolinecarboxamide] |
| 6.89 | 5.39 |  |  | CC(=O)c1ccc(CN(C(=O)c2ccc3nc(N)c(C)cc3c2)[C@H](C)c2ncccn2)nc1 [Example 754, N-((5-acetyl-2-pyridinyl)methyl)-2-amino-3-methyl-N-((1R)-1-(2-pyrimidinyl)ethyl)-6-quinolinecarboxamide] |
| 6.91 | 5.58 |  |  | COc1ccc(CN(C(=O)c2ccc3nc(N)c(C)cc3c2)[C@H](C)c2ncn(C)n2)nn1 (single isomer, unassigned) [Example 785] |
| 6.92 | 5.42 |  |  | Cc1cc2cc(C(=O)N(Cc3cc4ccccc4cn3)C(C)c3ncccn3)ccc2nc1N (stereo not drawn) [Example 792, 2-amino-N-(isoquinolin-3-ylmethyl)-3-methyl-N-(1-(pyrimidin-2-yl)ethyl)quinoline-6-carboxamide] |
| 6.94 | 5.40 |  |  | C[C@H](c1ncccn1)N(Cc1ccc(Cl)cn1)C(=O)c1cnc2nc(N)c(I)cc2c1 [Example 768, (R)-7-amino-N-((5-chloropyridin-2-yl)methyl)-6-iodo-N-(1-(pyrimidin-2-yl)ethyl)-1,8-naphthyridine-3-carboxamide] |
| 7.02 | 5.68 |  |  | CC[C@H](c1ncccn1)N(Cc1ccc(C(F)(F)F)cn1)C(=O)c1cnc2nc(N)c(Br)cc2c1 (single isomer, unassigned) [Example 443] |
| 7.30 | 6.16 |  |  | Cc1cc2cc(C(=O)N(Cc3ccc(N4CCOCC4)nn3)C(C)c3ncccn3)c(F)cc2nc1N (stereo in doubt) [Example 731, 2-amino-7-fluoro-3-methyl-N-((6-(4-morpholinyl)-3-pyridazinyl)methyl)-N-((1R)-1-(2-pyrimidinyl)ethyl)-6-quinolinecarboxamide] |
| 7.54 | 6.27 |  |  | Cc1cc2cc(C(=O)N(Cc3ccc(Cl)nn3)[C@H](C)c3ncccn3)ccc2nc1N (single isomer, unassigned) [Example 819] |
| 7.74 | 6.43 |  |  | Cc1cc2cc(C(=O)N(Cc3ccc(C(F)(F)F)cn3)[C@@H]3CCC[C@H]3OC(F)F)ccc2nc1N [Example 816, 2-amino-N-((1R,2R)-2-(difluoromethoxy)cyclopentyl)-3-methyl-N-((5-(trifluoromethyl)pyridin-2-yl)methyl)quinoline-6-carboxamide] |
| 7.89 | 6.52 |  |  | Cc1cc2cc(C(=O)N(Cc3ccc(C(F)(F)F)cn3)[C@H](C)c3cccc(F)n3)ccc2nc1N [Example 799, (R)-2-amino-N-(1-(6-fluoropyridin-2-yl)ethyl)-3-methyl-N-((5-(trifluoromethyl)pyridin-2-yl)methyl)quinoline-6-carboxamide] |
